Laboratory results from patent US20240182503A1, “MACROCYCLE COMPLEMENT FACTOR B INHIBITORS” (priority 2021, published 2024).

target: CVF-Bb complex (Homo sapiens (Human), UniProt P00751); test: biochemical; format: biochemical; conditions: not given
Protocol: CVF-Bb complex, prepared from purified cobra venom factor, (3 nM) is incubated with a compound of the disclosure at various concentrations for 10 minutes at room temperature in PBS (pH 7.4) containing 10 mM MgCl2 and 0.05% (w/v) CHAPS. Human Complement C3 substrate is added to a final concentration of 1 μM. After 1 hour incubation at room temperature, the enzyme reaction is stopped by addition of a cocktail of concentrated pan-protease inhibitors. The product of the reaction, C3a, is quantified by means of an enzyme-linked-immunosorbent assay and/or denaturing gel electrophoresis (SDS-PAGE). IC50 values are calculated from percentage of inhibition of CVF-Bb activity as a function of test compound concentration.

First: COc1cc(C)c2[nH]ccc2c1CN1CC[C@H]2C[C@H]1c1ccc(C(=O)NS(=O)(=O)C3(C)CC3)cc1OCCCCCCO2 [Ex. 46]
Second: COc1cc(C)c2[nH]ccc2c1CN1CC[C@H]2C[C@H]1c1ccc(C(=O)NS(C)(=O)=O)cc1OCCCCCCO2 [Ex. 33, (1^2S,1^4S)-1^1-((5-methoxy-7-methyl-1H-indol-4-yl)methyl)-N-(methylsulfonyl)-3,10-dioxa-1(2,4)-piperidina-2(1,2)-benzenacyclodecaphane-2^4-carboxamide]
The IC50 of the first is 3.2-fold higher: 311 nM for the first, 96 nM for the second. The second is the more potent here.

Compared with `COc1cc(C)c2[nH]ccc2c1CN1CC[C@H]2C[C@H]1c1ccc(C(=O)NS(C)(=O)=O)cc1OCCCCCO2` [Ex. 40, (1^2R,1^4R)-1^1-((5-methoxy-7-methyl-1H-indol-4-yl)methyl)-N-(methylsulfonyl)-3,9-dioxa-1(2,4)-piperidina-2(1,2)-benzenacyclononaphane-2^4-carboxamide], `Cc1cc2c(c3cc[nH]c13)CN1CC[C@@H](C[C@H]1c1ccc(C(=O)O)cc1)OCCCCCCCO2` [Ex. 25, 4-((3^2R,3^4R)-1^7-methyl-1^1H-4,12-dioxa-1(4,5)-indola-3(1,4)-piperidinacyclododecaphane-3^2-yl)benzoic acid] is higher in IC50: 309 nM for the first, over 10000 nM for the second.

Going from `Cc1cc2c(c3cc[nH]c13)CN1CC[C@@H](C[C@H]1c1ccc(C(=O)O)cc1)OCCCCCCCCCO2` (racemic) [Ex. 34, rac-4-((3^2R,3^4R)-1^7-methyl-11H-4,14-dioxa-1(4,5)-indola-3(1,4)-piperidinacyclotetradecaphane-3^2-yl)benzoic acid] to `COc1cc(C)c2[nH]ccc2c1CN1CC[C@H](OCCNC(C)=O)C[C@H]1c1ccc(C(=O)O)cc1` [Compar. Ex. 1, 4-((2S,4S)-4-(2-acetamidoethoxy)-1-((5-methoxy-7-methyl-1H-indol-4-yl)methyl)piperidin-2-yl)benzoic acid, reference compound], the IC50 falls from over 10000 nM to 135 nM.

First: CCO[C@H]1CCN(Cc2c(OC)cc(C)c3[nH]ccc23)[C@H](c2ccc(C(=O)NS(=O)(=O)CC)cc2)C1 [Ex. 44, 4-((2S,4S)-4-ethoxy-1-((5-methoxy-7-methyl-1H-indol-4-yl)methyl)piperidin-2-yl)-N-(ethylsulfonyl)benzamide]
Second: CCO[C@H]1CCN(Cc2c(OC)cc(C)c3[nH]ccc23)[C@H](c2ccc(C(=O)NS(=O)(=O)CCNC(C)=O)cc2)C1 [Compar. Ex. 2, N-((2-acetamidoethyl)sulfonyl)-4-((2S,4S)-4-ethoxy-1-((5-methoxy-7-methyl-1H-indol-4-yl)methyl)piperidin-2-yl)benzamide, reference compound]
The IC50 of the first is 2.9-fold lower: 138 nM for the first, 395 nM for the second.

`CCO[C@H]1CCN(Cc2c(OC)cc(C)c3[nH]ccc23)[C@H](c2ccc(C(=O)O)cc2OCCNC(C)=O)C1` [Ex. 6, 3-(2-acetamidoethoxy)-4-((2S,4S)-4-ethoxy-1-((5-methoxy-7-methyl-1H-indol-4-yl)methyl)piperidin-2-yl)benzoic acid] gave an IC50 of 313 nM.

same assay, conditions: inhibition of CVF-Bb activity (3 nM CVF-Bb, Human Complement C3 substrate 1 μM, C3a quantified), PBS pH 7.4; read-out: IC50

For `COc1cc(C)c2[nH]ccc2c1CN1CC[C@H]2C[C@H]1c1ccc(C(=O)NS(C)(=O)=O)c3ccc(cc13)OCCC/C=C/CO2` [Ex. 54, (1^2S,1^4S,E)-1^1-((5-methoxy-7-methyl-1H-indol-4-yl)methyl)-N-(methylsulfonyl)-3,10-dioxa-1(2,4)-piperidina-2(1,7)-naphthalenacyclodecaphan-7-ene-2^4-carboxamide], the IC50 was 303 nM.

same assay, conditions: read-out: IC50

`COc1cc(C)c2[nH]ccc2c1CN1CC[C@H]2C[C@H]1c1ccc(C(=O)O)cc1OCCC/C=C\CO2` [Ex. 11, (1^2S,1^4S,Z)-1′-((5-methoxy-7-methyl-1H-indol-4-yl)methyl)-3,10-dioxa-1(2,4)-piperidina-2(1,2)-benzenacyclodecaphan-7-ene-2^4-carboxylic acid] and `COc1cc(C)c2[nH]ccc2c1CN1CC[C@H]2C[C@H]1c1ccc(C(=O)NS(C)(=O)=O)cc1/C=C/CCCCCCO2` [Ex. 58, (1^2S,1^4S, E)-1^1-((5-methoxy-7-methyl-1H-indol-4-yl)methyl)-N-(methylsulfonyl)-11-oxa-1(2,4)-piperidina-2(1,2)-benzenacycloundecaphan-3-ene-2^4-carboxamide] are within 1.5-fold of each other in IC50: 1200 nM for the first, 1060 nM for the second.

`CCS(=O)(=O)NC(=O)c1ccc2c(c1)OCCCCCO[C@H]1CCN(Cc3c(OC)cc(C)c4[nH]ccc34)[C@H]2C1` [Ex. 59, (1^2S,1^4S)—N-(ethylsulfonyl)-1^1-((5-methoxy-7-methyl-1H-indol-4-yl)methyl)-3,9-dioxa-1(2,4)-piperidina-2(1,2)-benzenacyclononaphane-2^4-carboxamide] and `COc1cc(C)c2[nH]ccc2c1CN1CC[C@H]2C[C@H]1c1ccc(C(=O)NS(=O)(=O)C3CCCC3)cc1OCCCCCO2` [Ex. 61, (1^2S,1^4S)—N-(cyclopentylsulfonyl)-1^1-((5-methoxy-7-methyl-1H-indol-4-yl)methyl)-3,9-dioxa-1(2,4)-piperidina-2(1,2)-benzenacyclononaphane-2^4-carboxamide] are within 1.5-fold of each other in IC50: 244 nM for the first, 331 nM for the second.

First: (1^2S,1^4S)-N-(ethylsulfonyl)-1^1-((5-methoxy-7- methyl-1H-indol-4-yl)methyl)-3,10-dioxa- 1(2,4)-piperidina-2(1,2)- benzenacyclodecaphane-2^4-carboxamide [Ex. 45]
Second: COc1cc(C)c2[nH]ccc2c1CN1CC[C@H]2C[C@H]1c1ccc(C(=O)O)cc1CCCCCCCCCO2 [Ex. 72, (1^2S,1^4S)-1^1-((5-methoxy-7-methyl-1H-indol-4-yl)methyl)-12-oxa-1(2,4)-piperidina-2(1,2)-benzenacyclododecaphane-2^4-carboxylic acid]
The IC50 of the first is 3.1-fold higher: 396 nM for the first, 129 nM for the second.

`COc1cc(C)c2[nH]ccc2c1CN1CC[C@H]2C[C@H]1c1ccc(C(=O)O)c3ccc(cc13)OCCC/C=C/CO2` [Ex. 48, (1^2S,1^4S,E)-1^1-((5-methoxy-7-methyl-1H-indol-4-yl)methyl)-3,10-dioxa-1(2,4)-piperidina-2(1,7)-naphthalenacyclodecaphan-7-ene-2^4-carboxylic acid] and `COc1cc(C)c2[nH]ccc2c1CN1CC[C@@H]2CCCCCCCOc3cc(C(=O)O)ccc3[C@@H]1C2` [Ex. 77, (1^2S,1^4S)-1^1-((5-methoxy-7-methyl-1H-indol-4-yl)methyl)-3-oxa-1(2,4)-piperidina-2(1,2)-benzenacyclodecaphane-2^4-carboxylic acid] are within 1.5-fold of each other in IC50: 83.7 nM for the first, 85.6 nM for the second.

Compared with `COc1cc(C)c2[nH]ccc2c1CN1CC[C@H]2C[C@H]1c1ccc(C(=O)O)cc1OCCCC/C=C\CO2` [Ex. 10, (1^2S,1^4S,Z)-1^1-((5-methoxy-7-methyl-1H-indol-4-yl)methyl)-3,11-dioxa-1(2,4)-piperidina-2(1,2)-benzenacycloundecaphan-8-ene-2^4-carboxylic acid], “(1^2S,1^4S,E)-1^1-((5-methoxy-7-methyl-1H-indol-4-yl)methyl)-3,10-dioxa-1(2,4)-piperidina-2(1,7)-naphthalenacyclodecaphan-7-ene-2^4-carboxylic acid [Ex. 53]” is higher in IC50: 384 nM for the first, over 10000 nM for the second.

Compound `COc1cc(C)c2[nH]ccc2c1CN1CC[C@H]2C[C@H]1c1ccc(C(=O)O)cc1OCCn1cc(nn1)CO2` [Ex. 12, (2^2S,2^4S,Z)-2^1-((5-methoxy-7-methyl-1H-indol-4-yl)methyl)-5′H-3,8-dioxa-2(2,4)-piperidina-5(4,1)-triazola-1(1,2)-benzenacyclooctaphane-1^4-carboxylic acid] has an IC50 of 280 nM.
